What was measured:
[1] = Dissociation constant, pKa of the compound; assay type: physicochemical
[2] = Ratio of drug level in brain to plasma in mouse at 20 mg/kg, iv after 30 mins; assay type: ADME, organism-based; design: dose 20 mg/kg, route intravenous; conditions: brain and plasma, read-out: BPR
[3] = Drug level in mouse brain at 20 mg/kg, iv after 30 mins; assay type: ADME, organism-based; design: dose 20 mg/kg, route intravenous; conditions: read-out: Drug uptake

Row | Compound | pKa [1] | Kp at 0.5 h [2] | concentration at 0.5 h [3]
1 | COc1ccc(C(Cc2cc([N+](=O)[O-])ccc2OC)c2c[nH]c(N)n2)cc1 (stereo not given) | 8.1 |  | 
2 | Nc1nc(C2(c3ccc(Cl)cc3)CCCC2)cs1 |  | 3.9 | 15 µM
3 | COc1ccc(C(Cc2cc([N+](=O)[O-])ccc2OC)c2cn(C)c(N)n2)cc1 (stereo not given) | 8.3 |  | 
4 | COc1ccc(C(Cc2cc([N+](=O)[O-])ccc2OC)c2csc(N)n2)cc1 (stereo not given) | 5.5 |  | 

Reference: ChEMBL document CHEMBL1136900, “Discovery of aminoheterocycles as a novel beta-secretase inhibitor class: pH dependence on binding activity part 1” (Bioorg Med Chem Lett, 2009)
